Assay results published in patent US20060216342A1, “Micelle delivery system loaded with a pharmaceutical agent” (priority 2003, published 2006).

Assays:
LLC tumors = test: Inhibition of LLC tumor growth in mice with different taxol preparations; type: in vivo; conditions: ca. 100 μg taxol per injection, two injections, twenty days after first injection, untreated 2.00±0.60 g
Method: Inhibition of tumor growth with different taxol preparations. Mice with LLC tumors were injected with different taxol formulations on day 10 post inoculation (ca. 100 μg of taxol per animal per injection). On day 5 after the first administration, the injections were repeated. Twenty days after the first injection, the mice were sacrificed; tumors extracted, rinsed twice with saline, wiped, and weighed. There were five mice in each experimental group.

[1] = Encapsulation of tamoxifen into PEG-PE micelles; type: physicochemical; conditions: drug/PEG-PE molar ratio 1:1, after 0.22 μm filtration
Method: Tamoxifen dissolved in methanol was added to the solution of PEG-PE in chloroform to obtain the drug/PEG-PE molar ratio of 1:1. Organic solvents were evaporated and micelles were formed by shaking the tamoxifen/PE-PEG film obtained in the presence of an aqueous buffer at 50° C. Free tamoxifen was removed by filtration through 0.22 μm filters. Tamoxifen was quantified using the assay procedure for diethylstilbesterol (United States Pharmacopeal Convention, 2000).

[2] = Micelle size by dynamic light scattering and freeze-fracture electron microscopy; type: physicochemical; conditions: PEG-PE micelles with vs without tamoxifen
Method: When required, 0.5 ml of a 12 μM solution of 2C5 or 2G4 in borate, pH 9.0 was added to 0.5 ml of pNP-PEG-PE-containing micelles with a PEG-PE concentration of 1.5 mM. The mixture was incubated for 3 h at room temperature (RT) and dialyzed against HBS, using cellulose ester membranes with a cut-off size of 300,000 Da (Spectrum Medical Industries, Rancho Dominguez, Calif.). To assess the quantity of the micelle-bound protein, CF-labeled antibody was used. Protein concentration was measured by associated fluorescence at an excitation wavelength of 490 nm and an emission of 520 nm on a F-2000 spectrofluorimeter (Hitachi, Japan). The micelle size was measured by dynamic light scattering using a N4 Plus Submicron Particle System (Coulter Corporation, Miami, Fla.) at PEG-PE concentration of 2-10 mM.
Freeze-fracture electron microscopy. The sample was quenched using the sandwich technique and liquid nitrogen-cooled propane. A cooling rate of 10,000K/sec avoids ice crystal formation and cryofixation-caused artifacts. The fracturing process was carried out in JEOL JED-9000 freeze-etching equipment (Jeol, Peabody, Mass.) and the exposed fracture planes were shadowed with Pt for 30 sec at an angle of 25-35 degrees followed with carbon for 35 sec (2 kV, 60-70 mA, 1×10^−5 Torr). […]

[3] = Incorporation of porphyrin into PEG-PE micelles; type: physicochemical
Method: Porphyrin dissolved in methanol was added to a solution of PEG-PE in chloroform to obtain various final ratios of components. Organic solvents were removed under vacuum. Micelles were formed by shaking the PEG-PE/porphyrin film obtained in the presence of an aqueous buffer. Excess of porphyrin not incorporated into the micelles was separated by filtration of the micelle suspension through 0.2 μm filter. Concentration of porphyrin in micellar phase was estimated following the fluorescence at the excitation wavelength of […] and the emission wavelength of 674 nm (F635/674) after 100-200-fold dilution of the samples in methanol.

Compound: CC(=O)O[C@H]1C(=O)[C@@]2(C)[C@H]([C@H](OC(=O)c3ccccc3)[C@]3(O)C[C@H](OC(=O)[C@H](O)[C@@H](NC(=O)c4ccccc4)c4ccccc4)C(C)=C1C3(C)C)[C@]1(OC(C)=O)CO[C@@H]1C[C@@H]2O [free taxol, paclitaxel]
- average weight of excised tumors (LLC tumors): 1.58 ± 0.48 g

Compound: CC/C(=C(\c1ccccc1)c1ccc(OCCN(C)C)cc1)c1ccccc1 [tamoxifen]
- tamoxifen incorporated into PEG-PE micelles [1]: more than 95%
- effect of drug incorporation on micelle size [2]: does not change the size of the micelles significantly

Compound: chlorin e6 trimethyl ester [porphyrin]
- efficiency of incorporation into micelles ([3]; initial porphyrin/PEG-PE weight ratio of 1/2): about 80%
- efficiency of incorporation into micelles ([3]; initial porphyrin/PEG-PE weight ratio of up to 1/5): ~100%
- drug/PEG-PE in the resultant micelles ([3]; initial weight ratio of 1/2): 2/5
